We go through one compound from PMC12570502, “Kinetic characterization of RNA synthesis catalyzed by the model hyperthermophilic archaeon Thermococcus kodakarensis RNA polymerase” (mSphere, 2025).

In the assay the target is T1, T. k. RNAP (Thermococcus kodakarensis RNA polymerase) (Thermococcus kodakarensis, UniProt Q5JE32+Q5JE33+Q5JE34).
T1 construct: gene rpo1N; assembled on synthetic RNA:DNA scaffold (EC+10); with DNA-directed RNA polymerase subunit Rpo3; DNA-directed RNA polymerase subunit Rpo4; DNA-directed RNA polymerase subunit Rpo5; DNA-directed RNA polymerase subunit Rpo6; DNA-directed RNA polymerase subunit Rpo7; DNA-directed RNA polymerase subunit Rpo10; DNA-directed RNA polymerase subunit Rpo11; DNA-directed RNA polymerase subunit Rpo12
As to the kind of experiment: chemical quench-flow single-nucleotide addition, global fit (MENOTR). The assay is classed as biochemical. To be noted: 25 °C, pH 8.39, Mg2+, heparin trap; elongation complex EC+10 on RNA:DNA scaffold; kinetic-model Kd with k1 fixed at 1 × 10^8 M^-1 s^-1; active site. The source says:
chemical quench-flow single-nucleotide addition, global fit (MENOTR) on T. k. RNAP (Thermococcus kodakarensis RNA polymerase)

Compound `Nc1ncnc2c1ncn2[C@@H]1O[C@H](COP(=O)(O)OP(=O)(O)OP(=O)(O)O)[C@@H](O)[C@H]1O` [ATP] showed an equilibrium dissociation constant (Kd) of 2980 nM.

The term Kd denotes the equilibrium constant for the complex coming apart. A lower Kd goes with a tighter complex.
